Experiments:
Type in all cases: in vivo
[1] = tested on: Ctenocephalides felis; experiment: Ctenocephalides felis in vitro contact test with adult cat fleas; details: application rate 5 μg/cm^2 (500 g/ha); after 48 h; fleas dead or moribund
How it was run: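 Test tubes were coated with 250 μl acetone solution of compound, giving 5 μg/cm^2 at 900 ppm, then dried and stocked with 5-10 adult cat fleas. After 48 h at room temperature and ambient humidity, dead or moribund fleas were counted; efficacy given as % (100% = all dead or moribund).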

[2] = tested on: Boophilus microplus Parkhurst strain, SP-resistant; experiment: Boophilus microplus dip test; details: application rate 100 ppm, assessed after 7 days
How it was run: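 Adult engorged females of SP-resistant Parkhurst strain (8–10 per tube) fully immersed in compound diluted in water from a DMSO solution. Ticks then kept on filter discs in a climate-controlled room; efficacy scored from fertile egg laying at 7 days, with unclear eggs held about 42 days until hatch (100% = no fertile eggs).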

[3] = tested on: Boophilus microplus; experiment: Boophilus microplus injection test; details: application rate 20 μg/animal; injection into abdomen; assessed after 7 days
How it was run: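 Compound dissolved in DMSO (10 mg per 0.5 ml, then diluted with DMSO to test concentration); 1 μl injected into the abdomen of 5 engorged adult female ticks, which are then held in a climate-controlled room. Efficacy judged after 7 days by laying of fertile eggs.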

[4] = tested on: Ctenocephalides felis; experiment: Ctenocephalides felis oral test; details: application rate 100 ppm in citrated cattle blood; after 2 days
How it was run: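 Mortality in % was recorded 2 days after about 20 unfed adult cat fleas were allowed to imbibe citrated cattle blood containing the active ingredient through a parafilm membrane. The compound was first taken up in DMSO and then diluted with the blood to the desired concentration.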

[5] = tested on: Lucilia cuprina; experiment: Lucilia cuprina test; details: application rate 100 ppm; L1 larvae; after 2 days
How it was run: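 About 20 L1 larvae placed in vessels with minced horsemeat treated with compound (DMSO concentrate diluted in water) at the desired concentration. Kill (%) scored after 2 days; 100% means all larvae dead, 0% none.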

[6] = tested on: Musca domestica; experiment: Musca domestica test; details: application rate 100 ppm; adult houseflies; after 2 days
How it was run: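 Percent kill of adult houseflies is recorded 2 days after exposure, where 100% denotes all flies dead and 0% none. Flies (10 per vessel) feed from a sponge carrying sugar solution and the aqueous-diluted DMSO formulation.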

[7] = tested on: Myzus persicae; experiment: Myzus persicae spray test; details: application rate 100 g/ha; after 6 days
How it was run: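 Chinese cabbage leaf discs infested with all stages of green peach aphid were sprayed with compound formulated in solvent and water containing 1000 ppm emulsifier. Percent kill was assessed after 6 days, where 100% means all aphids dead and 0% none dead.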

[8] = tested on: Spodoptera frugiperda; experiment: Spodoptera frugiperda spray test; details: application rate 100 g/ha; caterpillars; after 7 days
How it was run: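 Maize leaf discs were sprayed with compound formulated in solvent plus water containing 1000 ppm emulsifier, dried, then infested with Spodoptera frugiperda caterpillars. Efficacy in % mortality was scored after 7 days (100% all killed, 0% none).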

[9] = tested on: Anopheles gambiae strain RSPH (homozygot kdr); experiment: Anopheles test (ANPHGB surface treatment); details: application rate 100 mg/m^2, exposure 30 minutes, 24 hours after contact, read-out: efficacy (mortality in %)
Protocol: Anopheles Test (ANPHGB Surface Treatment)
(§1) Solvent: acetone+2000 ppm rapeseed oil methyl ester (RME)
(§2) To produce an appropriate active ingredient formulation, the active ingredient is dissolved in the solvent (2 mg/ml). The active ingredient formulation is pipetted onto a glazed tile and, after it has dried off, adult mosquitoes of the species Anopheles gambiae strain RSPH (homozygot kdr) are placed onto the treated tile. The exposure time is 30 minutes.
(§3) 24 hours after contact with the treated surface, mortality in % is determined. 100% means that all the mosquitoes have been killed; 0% means that none of the mosquitoes have been killed.

[10] = tested on: Anopheles funestus strain FUMOZ-R; experiment: Anopheles test (ANPHFU surface treatment); details: 24 hours after contact, read-out: efficacy (mortality in %)
Protocol: Anopheles Test (ANPHFU Surface Treatment)
as §1
as §2, with “funestus” for “gambiae”, “FUMOZ-R (Hunt et al., Med Vet Entomol. 2005 September; 19 (3):271-5)” for “RSPH (homozygot kdr)”
as §3

Cn1nc(C(F)(F)C(F)(F)F)c(C(F)(F)F)c1-n1cc(-c2cccc(NC(=O)c3ccncc3)c2)cn1 [Example 1-001, N-{3-[2′-Methyl-5′-(pentafluoroethyl)-4′-(trifluoromethyl)-2′H-1,3′-bipyrazol-4-yl]-phenyl}isonicotinamide]
efficacy [1]: 100% | efficacy (laying of fertile eggs) [2]: 95% | efficacy (laying of fertile eggs) [3]: 100% | efficacy (kill in %) [4]: 100% | efficacy (kill in %) [5]: 100% | efficacy (kill in %) [6]: 100% | efficacy [7]: 100% | efficacy [8]: 100% | mortality at 100 mg/m2 [9]: 90 to 100% | mortality at 20 mg/m2 ([10]; application rate 20 mg/m^2, exposure 30 minutes): 90 to 100% | mortality at 100 mg/m2 ([10]; application rate 100 mg/m^2, exposure 30 minutes): 90 to 100%

Source: patent US10273226B2, “Pyrazolyl-heteroarylamides as pesticides” (Bayer Animal Health GmbH, priority 2014, dated 2019)
